According to ChEMBL document CHEMBL5244227, “Applications of fluorine-containing amino acids for drug design” (Eur J Med Chem, 2020):
One block for each compound: values may come before it.

What was measured:
Plasmodium berghei = test: Antimalarial activity against Plasmodium berghei infected in mouse model infected with assessed as reduction in parasitemia at 100 mg/kg; assay type: functional; parameters: scale not given: the % may be the effect or the level left
[1] = In vivo inhibition of BACE-1 in wild type Hartley guinea pig assessed as reduction in amyloid beta level in cerebrospinal fluid at 30 mg/kg, po administered twice daily for 2.5 days; assay type: functional; conditions: Cavia porcellus, 60 h, time 2.5 day
[2] = In vivo inhibition of BACE-1 in wild type Hartley guinea pig assessed as reduction in amyloid beta level in cortex at 30 mg/kg, po administered twice daily for 2.5 days; assay type: functional; conditions: Cavia porcellus, 60 h, time 2.5 day
[3] = Oral bioavailability in rat; assay type: ADME, organism-based; conditions: in vivo
Hepatitis C virus = test: Antiviral activity against HCV; assay type: functional, organism-based, Hepacivirus hominis
[4] = target: ATP-dependent translocase ABCB1 (Homo sapiens, UniProt P08183); test: Substrate activity at human P-gp assessed as transport ratio
[5] = Inhibition of HCV NS3/4A protease; parameters: species or system Hepacivirus hominis
[6] = Binding affinity to CGRP (unknown origin); parameters: species or system Homo sapiens

Sequence of ATP-dependent translocase ABCB1 (P08183 whole entry): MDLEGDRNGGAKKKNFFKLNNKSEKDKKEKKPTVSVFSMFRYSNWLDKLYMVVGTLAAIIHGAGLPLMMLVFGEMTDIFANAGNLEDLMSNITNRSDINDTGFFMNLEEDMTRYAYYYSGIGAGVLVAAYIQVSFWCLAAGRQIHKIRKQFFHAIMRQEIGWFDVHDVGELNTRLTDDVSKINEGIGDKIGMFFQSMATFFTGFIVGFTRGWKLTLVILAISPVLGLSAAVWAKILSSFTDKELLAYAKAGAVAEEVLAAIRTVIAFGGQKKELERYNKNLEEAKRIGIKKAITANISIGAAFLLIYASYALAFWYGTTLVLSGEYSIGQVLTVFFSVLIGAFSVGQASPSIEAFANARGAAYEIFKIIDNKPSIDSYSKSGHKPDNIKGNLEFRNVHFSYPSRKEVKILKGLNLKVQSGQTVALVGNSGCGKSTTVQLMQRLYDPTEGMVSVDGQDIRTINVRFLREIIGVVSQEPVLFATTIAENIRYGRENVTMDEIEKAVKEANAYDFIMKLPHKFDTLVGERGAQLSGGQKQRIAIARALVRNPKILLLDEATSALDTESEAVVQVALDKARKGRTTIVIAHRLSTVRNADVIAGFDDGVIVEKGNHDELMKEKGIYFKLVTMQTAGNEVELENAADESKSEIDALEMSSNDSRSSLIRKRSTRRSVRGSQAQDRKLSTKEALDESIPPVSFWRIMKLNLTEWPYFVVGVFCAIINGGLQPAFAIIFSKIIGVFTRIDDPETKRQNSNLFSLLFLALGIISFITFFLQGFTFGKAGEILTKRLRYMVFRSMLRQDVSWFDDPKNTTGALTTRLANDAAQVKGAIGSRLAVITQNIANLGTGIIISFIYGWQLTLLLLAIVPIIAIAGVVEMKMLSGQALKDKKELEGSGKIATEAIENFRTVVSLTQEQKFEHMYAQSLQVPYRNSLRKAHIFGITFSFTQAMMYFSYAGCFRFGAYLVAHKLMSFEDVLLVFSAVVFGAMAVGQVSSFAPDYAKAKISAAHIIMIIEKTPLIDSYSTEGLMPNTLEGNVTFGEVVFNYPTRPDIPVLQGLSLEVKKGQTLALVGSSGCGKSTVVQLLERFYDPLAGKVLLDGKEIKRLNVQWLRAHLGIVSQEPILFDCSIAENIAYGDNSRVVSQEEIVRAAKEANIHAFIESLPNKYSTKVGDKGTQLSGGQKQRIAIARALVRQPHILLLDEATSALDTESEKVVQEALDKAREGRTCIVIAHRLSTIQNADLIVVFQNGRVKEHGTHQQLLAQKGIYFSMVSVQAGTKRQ

SMILES: CC1CCc2c([nH]c3ccccc23)C2(N1)C(=O)Nc1ccc(Cl)cc12 (stereo not given)
Activity (Plasmodium berghei): 96%

SMILES: CC(=O)N[C@@H](Cc1cc(F)cc(F)c1)[C@H](O)CNC1(c2cccc(C(C)(C)C(F)F)c2)CC1
inhibition in vivo at 30 mg/kg [1]: 32%
inhibition in vivo at 30 mg/kg [2]: 28%

SMILES: C[C@@]1(c2cc(F)cc(F)c2)CN([11CH3])C2(CCCC2)C(=O)N1CC(=O)Nc1ccc2c(c1)C[C@@]1(C2)C(=O)Nc2ncccc21
Ratio [4]: 1.7

SMILES: O=C(CN1C(=O)C2(CCCC2)NC[C@@H]1c1cc(F)cc(F)c1)Nc1ccc2c(c1)C[C@@]1(C2)C(=O)Nc2ncccc21
Ki [6]: 0.57 nM

SMILES: O=C(CN1C(=O)C2(CCCC2)NC[C@@H]1c1ccccc1)Nc1ccc2c(c1)C[C@@]1(C2)C(=O)Nc2ncccc21
Ki [6]: 0.067 nM

SMILES: O=C(CN1C(=O)C2(CCCC2)NC[C@H]1c1cc(F)cc(F)c1)Nc1ccc2c(c1)C[C@@]1(C2)C(=O)Nc2ncccc21 [MK3207]
Ki [6]: 0.017 nM

SMILES: NCCCC[C@H](NC(=O)[C@@H](Cc1cc(Br)c(O)c(Br)c1)NC(=O)N1CCC(N2Cc3ccccc3NC2=O)CC1)C(=O)N1CCN(c2ccncc2)CC1 [OLCEGEPANT]
Ki [6]: 0.01 nM

Second part, the compound after the results:

bioavailability [3]: 0.5%
SMILES: C=C[C@@H]1C[C@]1(NC(=O)[C@@H]1C[C@@H](Oc2cc(-c3csc(NC(C)C)n3)nc3cc(OC)ccc23)CN1C(=O)[C@@H](NC(=O)OC1CCCC1)C(C)(C)C)P(=O)(O)Cc1ccccc1

EC50 (Hepatitis C virus): 10 nM
SMILES: COc1ccc2c(O[C@@H]3C[C@H]4C(=O)N[C@]5(P(=O)(O)Cc6ccccc6)C[C@H]5/C=C/CCCCC[C@H](NC(=O)OC5CCCC5)C(=O)N4C3)cc(-c3csc(NC(C)C)n3)nc2c1

EC50 [5]: 8.1 nM
SMILES: COc1ccc2c(O[C@@H]3C[C@H]4C(=O)N[C@]5(C(=O)NS(=O)(=O)C6CC6)C[C@H]5/C=C\CCCCN(C)C(=O)[C@@H]4C3)cc(-c3nc(C(C)C)cs3)nc2c1C

EC50 [5]: 15000 nM
SMILES: COc1ccc2c(O[C@@H]3C[C@H]4C(=O)N[C@]5(C(=O)NS(=O)(=O)C6CC6)C[C@@]5(F)/C=C\CCCCN(C)C(=O)[C@@H]4C3)cc(-c3nc(C(C)C)cs3)nc2c1C

IC50 [5]: 976 nM
SMILES: COc1cnc(O[C@@H]2C[C@@H](C(=O)N[C@@H](CC(F)F)C(=O)NS(=O)(=O)C3CC3)N(C(=O)C(NC(=O)OC(C)(C)C)C(C)(C)C)C2)c2cc(Cl)ccc12 (single isomer, unassigned)

IC50 [5]: 17 nM
SMILES: COc1cnc(O[C@@H]2C[C@@H](C(=O)N[C@]3(C(=O)NS(=O)(=O)C4CC4)C[C@H]3C(F)(F)F)N(C(=O)C(NC(=O)OC(C)(C)C)C(C)(C)C)C2)c2cc(Cl)ccc12 (single isomer, unassigned)

IC50 [5]: 3080 nM
SMILES: CC[C@H](NC(=O)[C@@H]1C[C@@H](Oc2ncc(OC)c3ccc(Cl)cc23)CN1C(=O)C(NC(=O)OC(C)(C)C)C(C)(C)C)C(=O)NS(=O)(=O)C1CC1 (single isomer, unassigned)

IC50 [5]: 13 nM
SMILES: COc1cnc(O[C@@H]2C[C@@H](C(=O)N[C@]3(C(=O)NS(=O)(=O)C4CC4)C[C@H]3C)N(C(=O)C(NC(=O)OC(C)(C)C)C(C)(C)C)C2)c2cc(Cl)ccc12 (single isomer, unassigned)

IC50 [5]: 1 nM
SMILES: COc1cnc(O[C@@H]2C[C@@H](C(=O)N[C@]3(C(=O)NS(=O)(=O)C4CC4)C[C@H]3CC(F)F)N(C(=O)C(NC(=O)OC(C)(C)C)C(C)(C)C)C2)c2cc(Cl)ccc12 (single isomer, unassigned)

IC50 [5]: 4 nM
Ki [5]: 0.089 nM
EC50 (Hepatitis C virus): 20 nM
SMILES: COc1ccc2c(O[C@@H]3C[C@H]4C(=O)N[C@]5(P(=O)(O)Cc6c(F)cccc6F)C[C@H]5CCCCCCC[C@H](NC(=O)OC5CCCC5)C(=O)N4C3)cc(-c3csc(NC(C)C)n3)nc2c1Cl [GS-9256]
